pEC50: −log10 of the molar value.
Assays:
human TPO receptor = target: T1, human TPO receptor (Homo sapiens, UniProt P40238); experiment: TPO receptor responsiveness: proliferation of TPO-dependent BaF/hTPOR cells (WST-1); assay type: cell-based; settings: 20 hours culture, WST-1 absorption at 450 nm, concentration exhibiting half-maximum responsiveness of human TPO, read-out: ED50 (the source's name)
T1 construct: expressed in transfected cells; host or cells: BaF-B03 (mouse pro-B cell line), strain BaF/hTPOR
T1 sequence (P40238 26-635): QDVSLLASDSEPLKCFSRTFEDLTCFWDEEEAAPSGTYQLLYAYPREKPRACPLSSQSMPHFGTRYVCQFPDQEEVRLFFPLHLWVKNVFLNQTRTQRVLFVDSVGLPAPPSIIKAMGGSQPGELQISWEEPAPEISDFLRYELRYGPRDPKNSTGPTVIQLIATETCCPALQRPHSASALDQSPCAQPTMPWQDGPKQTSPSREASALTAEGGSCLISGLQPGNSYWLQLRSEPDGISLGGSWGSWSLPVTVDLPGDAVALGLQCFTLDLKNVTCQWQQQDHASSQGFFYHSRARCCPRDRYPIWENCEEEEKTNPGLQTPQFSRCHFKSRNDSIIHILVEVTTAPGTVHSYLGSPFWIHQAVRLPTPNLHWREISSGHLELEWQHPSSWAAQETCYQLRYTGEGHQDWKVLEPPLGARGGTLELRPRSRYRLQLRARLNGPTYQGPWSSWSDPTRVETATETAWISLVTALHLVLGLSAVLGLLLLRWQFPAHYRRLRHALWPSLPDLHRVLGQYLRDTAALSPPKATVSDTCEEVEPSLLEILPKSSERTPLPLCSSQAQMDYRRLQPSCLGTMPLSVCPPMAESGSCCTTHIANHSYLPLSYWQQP
Procedure: TPO receptor responsiveness of the compound represented by the formula (I) was measured using TPO-dependent cell strain BaF/hTPOR made by introducing a human TPO receptor gene into a BaF-B03 cell according to the method described in Collins et al., J. Cell. Physiol., 137: 293-298 (1988). A nucleotide sequence of a gene encoding thrombopoietin receptor is described in Vigon et al., Proc. Natl. Acad. Sci, 89:5640-5644 (1992). […] A BAF/hTPOR cell proliferated in a RPMI medium with 10% WEHI-3 culture solution added thereto was washed with PBS once, suspended in a RPMI medium with no WHEHI-3 culture solution added thereto, and cells were seeded on a 96-well microplate at a 5×10^4/well, and the present compound or TPO was added thereto. After cultured at 37° C. for 20 hours under 5% CO2 atmosphere, a WST-1 reagent (manufactured by Takara Shuzo, Co., Ltd) being a cell proliferation determination reagent was added, and absorption at 450 nm was measured after 4 hours.

Structure (SMILES) | pEC50 (human TPO receptor) | melting point [°C]
CCCCCCO[C@H](C)c1cccc(-c2csc(NC(=O)c3cc(Cl)c(/C=C(\C)C(=O)O)c(Cl)c3)n2)c1OC [Compound C-3A, (R)-(E)-3-(2,6-dichloro-4-{4-[3-(1-hexyloxyethyl)-2-methyloxyphenyl]thiazol-2-ylcarbamoyl}phenyl)-2-methylacrylic acid] | 8.85 | 
CCCCCCO[C@@H](C)c1cccc(-c2csc(NC(=O)c3cc(Cl)c(/C=C(\C)C(=O)O)c(Cl)c3)n2)c1OC [Compound C-3B, (S)-(−)-(E)-3-(2,6-dichloro-4-{4-[3-(1-hexyloxyethyl)-2-methyloxyphenyl]thiazol-2-ylcarbamoyl}phenyl)-2-methylacrylic acid] | 8.96 | 
CCCCCC[C@@H](OC)c1cccc(-c2csc(NC(=O)c3cc(Cl)c(/C=C(\C)C(=O)O)c(Cl)c3)n2)c1OC [Compound C-1A, (R)-(E)-3-(2,6-dichloro-4-{4-[2-methyloxy-3-(1-methyloxyheptyl)phenyl]thiazol-2-ylcarbamoyl}phenyl)-2-methylacrylic acid] | 8.51 | 
CCCCCC[C@H](OC)c1cccc(-c2csc(NC(=O)c3cc(Cl)c(/C=C(\C)C(=O)O)c(Cl)c3)n2)c1OC [Compound C-1B, (S)-(E)-3-(2,6-dichloro-4-{4-[2-methyloxy-3-(1-methyloxyheptyl)-phenyl]thiazol-2-ylcarbamoyl}phenyl)-2-methylacrylic acid] | 8.68 | 162 to 164
CCCO[C@H](c1cccc(-c2csc(NC(=O)c3cc(Cl)c(/C=C(\C)C(=O)O)c(Cl)c3)n2)c1OC)C(C)(C)C [Compound C-9B, (S)-(E)-3-(2,6-dichloro-4-{4-[3-(2,2-dimethyl-1-propyloxypropyl)-2-methyloxyphenyl]thiazol-2-ylcarbamoyl}phenyl)-2-methylacrylic acid] | 10.05 | 

Source: patent US8889722B2, “Pharmaceutical composition containing optically active compound having thrombopoietin receptor agonist activity, and intermediate therefor” (Shionogi & Co., Ltd., priority 2007, dated 2014)
